Assay results: patent US20240423983A1, “ENHANCEMENT OF CD47 BLOCKADE THERAPY WITH DHFR INHIBITORS” (PF Argentum IP Holdings LLC, priority 2021, published 2024)
Where two headings read alike, the source gives them in different places.

Tests used:
[1] = system: human non-small cell lung cancer (NSCLC) xenograft; settings: 2 mg/kg pralatrexate-treated group; cited from earlier work
NCI-H460 NSCLC xenograft = settings: cited from earlier work
[2] = system: human T cell lymphoma cell line HH; assay: macrophage phagocytosis assay on human lymphoma cell line HH; assay type: cell-based; settings: HH cells (CD47-sensitive), 2 h co-culture with macrophages; FIG. 1; vs single agents or no-treatment control
Method: (§1) A macrophage phagocytosis assay was conducted in order to assess the effects of the combination of a DHFRi and CD47 blocking agent as compared to the agents individually on macrophage phagocytosis of human lymphoma cells.
(§2) For the assay, the DHFRi was pralatrexate, and the CD47 blocking agent was an Fc fusion protein comprising soluble SIRPα (TTI-621). The lymphoma cells were human T cell lymphoma cell lines HH (ATCC Ref. CRL-2105) (a mature T cell line from peripheral blood of a patient with aggressive cutaneous T cell leukemia/lymphoma) or H9 (ATCC Ref. HTB-176) (a cutaneous T cell lymphoma). Thus, there were 4 experimental conditions for each lymphoma cell type: A) no treatment; B) pralatrexate only; C) TTI-621 (SIRPα-IgG1 Fc) only; and D) combination of pralatrexate and TTI-621.
(§3) PBMC from normal donors were purchased from BioIVT and informed consent was obtained from all donors. CD14+ monocytes were isolated from PBMCs by positive selection using human monocyte isolation kit. […] Phagocytosis was assessed as % VPD450+ cells of live, single CD14+CD11b+ macrophages by flow cytometry.

[3] = system: human T cell lymphoma cell line H9; assay: macrophage phagocytosis assay on human lymphoma cell line H9; assay type: cell-based; settings: H9 cells (CD47-insensitive), 2 h co-culture with macrophages; FIG. 2; vs single agents or no-treatment control
Method: as §1, §2, §3

Row | Molecule | tumor growth inhibition (TGI) [1] [%] | tumor growth inhibition (TGI) (NCI-H460 NSCLC xenograft; 1 mg/kg) [%] | tumor growth inhibition (TGI) (NCI-H460 NSCLC xenograft; 2 mg/kg) [%] | percentage phagocytosis (% VPD450+ cells of live, single CD14+CD11b+ macrophages) [2] | percentage phagocytosis (% VPD450+ cells of live, single CD14+CD11b+ macrophages) [3]
1 | C#CCC(Cc1cnc2nc(N)nc(N)c2n1)c1ccc(C(=O)N[C@@H](CCC(=O)O)C(=O)O)cc1 (some centres unmarked) [pralatrexate, Pralatrexate] | 38 | 34 | 52 | – | –
2 | TTI-621: Fc fusion protein comprising soluble SIRPα (SIRPα-IgG1 Fc), SEQ ID NO: 9; CD47 blocking agent | – | – | – | increased phagocytosis | not present
